Test results taken from patent US20060069132A1, “Azolecarboxamide herbicides” (priority 2004, published 2006).

Legend:
barnyardgrass [1] = assay: Test A pre-/postemergence herbicide test; format: in vivo, Echinochloa crus-galli
Summary of the method: (§1)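 Pre: seeded sandy loam, directed soil spray, compound in non-phytotoxic solvent + surfactant. Post: 1–2-leaf plants (2–10 cm), sprayed to runoff. Greenhouse ~10 d; visual injury vs untreated, 0–100 scale.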

large crabgrass [2] = assay: Test A pre-/postemergence herbicide test; format: in vivo, Digitaria sanguinalis
Summary of the method: as §1

giant foxtail [3] = assay: Test A pre-/postemergence herbicide test; format: in vivo, Setaria faberi
Summary of the method: as §1

morningglory [4] = assay: Test A pre-/postemergence herbicide test; format: in vivo, Ipomoea spp.
Summary of the method: as §1

redroot pigweed = assay: Test A pre-/postemergence herbicide test; format: in vivo, Amaranthus retroflexus
Summary of the method: as §1

velvetleaf [5] = assay: Test A pre-/postemergence herbicide test; format: in vivo, Abutilon theophrasti
Summary of the method: as §1

barnyardgrass [6] = assay: Test B pre-/postemergence herbicide test; format: in vivo, Echinochloa crus-galli; conditions: for Barnyardgrass plant response rating: postemergence, visual rating, scale 0 (no effect) to 100 (complete control)
Summary of the method: (§2)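 Pre: seeds sown, then sprayed. Post: 1–4-leaf plants (2–18 cm) sprayed at the same time. Paddy: flooded, treated at 2-leaf stage. Formulation: non-phytotoxic solvent with surfactant. Greenhouse 13–15 days; visual 0–100 score relative to controls.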

Surinam grass = assay: Test B pre-/postemergence herbicide test; format: in vivo, Urochloa decumbens; conditions: for Surinam Grass plant response rating: postemergence, visual rating, scale 0 (no effect) to 100 (complete control)
Summary of the method: (§3)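 Flooded paddy rice and barnyardgrass were treated at the 2-leaf stage; upland plantings received compound either on sown seed or on 1- to 4-leaf seedlings. All were kept 13–15 days in a greenhouse and scored visually, 0–100, relative to untreated plants.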

cocklebur = assay: Test B pre-/postemergence herbicide test; format: in vivo, Xanthium strumarium; conditions: postemergence, visual rating, scale 0 (no effect) to 100 (complete control)
Summary of the method: as §2

corn = assay: Test B pre-/postemergence herbicide test; format: in vivo, Zea mays; conditions: for Corn plant response rating: postemergence, visual rating, scale 0 (no effect) to 100 (complete control)
Summary of the method: as §3

large crabgrass [7] = assay: Test B pre-/postemergence herbicide test; format: in vivo, Digitaria sanguinalis; conditions: for Crabgrass, Large plant response rating: postemergence, visual rating, scale 0 (no effect) to 100 (complete control)
Summary of the method: as §3

giant foxtail [8] = assay: Test B pre-/postemergence herbicide test; format: in vivo, Setaria faberi; conditions: for Foxtail, Giant plant response rating: postemergence, visual rating, scale 0 (no effect) to 100 (complete control)
Summary of the method: as §3

lambsquarters = assay: Test B pre-/postemergence herbicide test; format: in vivo, Chenopodium album; conditions: for Lambsquarters plant response rating: postemergence, visual rating, scale 0 (no effect) to 100 (complete control)
Summary of the method: as §3

morningglory [9] = assay: Test B pre-/postemergence herbicide test; format: in vivo, Ipomoea coccinea; conditions: for Morningglory plant response rating: postemergence, visual rating, scale 0 (no effect) to 100 (complete control)
Summary of the method: as §2

pigweed = assay: Test B pre-/postemergence herbicide test; format: in vivo, Amaranthus retroflexus; conditions: for Pigweed plant response rating: postemergence, visual rating, scale 0 (no effect) to 100 (complete control)
Summary of the method: as §3

rice [10] = assay: Test B pre-/postemergence herbicide test; format: in vivo, Oryza sativa; conditions: preemergence
Summary of the method: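 Evaluation is visual, comparing treated with control plants on a scale where 0 means no effect and 100 means full control. Treatments were preemergence, or postemergence on seedlings 2–18 cm tall, and held 13–15 days in the greenhouse.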

velvetleaf [11] = assay: Test B pre-/postemergence herbicide test; format: in vivo, Abutilon theophrasti; conditions: for Velvetleaf plant response rating: postemergence, visual rating, scale 0 (no effect) to 100 (complete control)
Summary of the method: as §3

blackgrass = assay: Test B postemergence herbicide test; format: in vivo, Alopecurus myosuroides; conditions: postemergence, visual rating, scale 0 (no effect) to 100 (complete control)
Summary of the method: (§4)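 Read-out: visual comparison with controls, scored 0 to 100, where 100 means complete control and 0 no effect. Formulated chemicals were applied postemergence to plants 2–18 cm tall (1- to 4-leaf), or to flooded-paddy plants at the 2-leaf stage, then held 13 to 15 days under glass.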

wheat = assay: Test B postemergence herbicide test; format: in vivo, Triticum aestivum; parameters: key to Wheat plant response rating: 0 = no effect, 100 = complete control; conditions: postemergence, visual rating, scale 0 (no effect) to 100 (complete control)
Summary of the method: as §4

wild oat = assay: Test B postemergence herbicide test; format: in vivo, Avena fatua; conditions: postemergence, visual rating, scale 0 (no effect) to 100 (complete control)
Summary of the method: as §4

rice [12] = assay: Test B flooded paddy test; format: in vivo, Oryza sativa; conditions: 1000 g ai/ha, visual rating, scale 0 to 100 (0 no effect, 100 complete control), 13 to 15 days
Summary of the method: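 After treating 2-leaf paddy plants or 2–18 cm postemergence plants (1 to 4 leaves) with formulated chemical, researchers kept them in a greenhouse for 13–15 days. Effects were judged visually versus controls: 0 indicates none, 100 total control.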

[13] = test system: small flower umbrella sedge; assay: Test B flooded paddy test; format: in vivo, Cyperus difformis; conditions: 1000 g ai/ha, visual rating, scale 0 to 100 (0 no effect, 100 complete control), 13 to 15 days
Summary of the method: as §4

ducksalad = assay: Test B flooded paddy test; format: in vivo, Heteranthera limosa; conditions: 1000 g ai/ha, visual rating, scale 0 to 100 (0 no effect, 100 complete control), 13 to 15 days
Summary of the method: as §4

barnyardgrass [14] = assay: Test B flooded paddy test; format: in vivo, Echinochloa crus-galli; conditions: 1000 g ai/ha, visual rating, scale 0 to 100 (0 no effect, 100 complete control), 13 to 15 days
Summary of the method: as §4

[15] = Postemergence, 500 g ai/ha, 0 to 100 scale, 0 no effect, 100 complete control
[16] = Postemergence, 2000 g ai/ha, 0 to 100 scale, 0 no effect, 100 complete control
[17] = Preemergence, 2000 g ai/ha, visual rating, 0 to 100 scale (0 no effect, 100 complete control)
[18] = preemergence, 500 g ai/ha, visual injury, 0 to 100 scale (0 no effect, 100 complete control)
[19] = 125 g ai/ha, 0 = no effect, 100 = complete control, preemergence
[20] = 500 g ai/ha, visual rating 0-100, 0 no effect, 100 complete control, preemergence

CCn1nc(C(C)(C)C)cc1C(=O)Nc1nc(OC)cc(SCF)n1 [Compound 167]
Barnyardgrass plant response rating (barnyardgrass [1]; [15]): 0
Plant response rating, Barnyardgrass (barnyardgrass [1]; [16]): 0
Barnyardgrass plant response rating (barnyardgrass [1]; [17]): 0
Barnyardgrass plant response rating (barnyardgrass [1]; [18]): 0
Crabgrass, Large plant response rating (large crabgrass [2]; [15]): 0
Plant response rating, Crabgrass, Large (large crabgrass [2]; [16]): 5
Crabgrass, Large plant response rating (large crabgrass [2]; [17]): 5
Crabgrass, Large plant response rating (large crabgrass [2]; [18]): 0
Foxtail, Giant plant response rating (giant foxtail [3]; [15]): 0
Plant response rating, Foxtail, Giant (giant foxtail [3]; [16]): 0
Foxtail, Giant plant response rating (giant foxtail [3]; [17]): 10
Foxtail, Giant plant response rating (giant foxtail [3]; [18]): 0
Morningglory plant response rating (morningglory [4]; [15]): 0
Plant response rating, Morningglory (morningglory [4]; [16]): 10
Morningglory plant response rating (morningglory [4]; [17]): 5
Morningglory plant response rating (morningglory [4]; [18]): 0
Pigweed plant response rating (redroot pigweed; [15]): 0
Plant response rating, Pigweed (redroot pigweed; [16]): 0
Pigweed plant response rating (redroot pigweed; [17]): 50
Pigweed plant response rating (redroot pigweed; [18]): 0
Velvetleaf plant response rating (velvetleaf [5]; [15]): 10
Plant response rating, Velvetleaf (velvetleaf [5]; [16]): 20
Velvetleaf plant response rating (velvetleaf [5]; [17]): 10
Velvetleaf plant response rating (velvetleaf [5]; [18]): 5
Barnyardgrass plant response rating (0 to 100 scale) (barnyardgrass [6]; [19]): 0
Plant response rating, Barnyardgrass (barnyardgrass [6]; [20]): 0
Barnyardgrass plant response rating (barnyardgrass [6]; 125 g ai/ha): 0
Barnyardgrass plant response rating (barnyardgrass [6]; 500 g ai/ha): 0
Surinam Grass plant response rating (0 to 100 scale) (Surinam grass; [19]): 0
Plant response rating, Surinam Grass (Surinam grass; [20]): 0
Surinam Grass plant response rating (Surinam grass; 125 g ai/ha): 0
Surinam Grass plant response rating (Surinam grass; 500 g ai/ha): 0
Cocklebur plant response rating (cocklebur; 125 g ai/ha): 0
Cocklebur plant response rating (cocklebur; 500 g ai/ha): 0
Plant response rating, Corn (corn; [20]): 0
Corn plant response rating (corn; 125 g ai/ha): 0
Corn plant response rating (corn; 500 g ai/ha): 0
Crabgrass, Large plant response rating (0 to 100 scale) (large crabgrass [7]; [19]): 0
Plant response rating, Crabgrass, Large (large crabgrass [7]; [20]): 0
Crabgrass, Large plant response rating (large crabgrass [7]; 125 g ai/ha): 0
Crabgrass, Large plant response rating (large crabgrass [7]; 500 g ai/ha): 0
Foxtail, Giant plant response rating (0 to 100 scale) (giant foxtail [8]; [19]): 0
Plant response rating, Foxtail, Giant (giant foxtail [8]; [20]): 0
Foxtail, Giant plant response rating (giant foxtail [8]; 125 g ai/ha): 0
Foxtail, Giant plant response rating (giant foxtail [8]; 500 g ai/ha): 0
Lambsquarters plant response rating (0 to 100 scale) (lambsquarters; [19]): 0
Plant response rating, Lambsquarters (lambsquarters; [20]): 0
Lambsquarters plant response rating (lambsquarters; 125 g ai/ha): 0
Lambsquarters plant response rating (lambsquarters; 500 g ai/ha): 0
Morningglory plant response rating (0 to 100 scale) (morningglory [9]; [19]): 0
Plant response rating, Morningglory (morningglory [9]; [20]): 0
Morningglory plant response rating (morningglory [9]; 125 g ai/ha): 0
Morningglory plant response rating (morningglory [9]; 500 g ai/ha): 0
Pigweed plant response rating (0 to 100 scale) (pigweed; [19]): 0
Plant response rating, Pigweed (pigweed; [20]): 0
Pigweed plant response rating (pigweed; 125 g ai/ha): 0
Pigweed plant response rating (pigweed; 500 g ai/ha): 0
Rice plant response rating (0 to 100 scale) (rice [10]; 125 g ai/ha, 0 = no effect, 100 = complete control): 0
Plant response rating, Rice (rice [10]; 500 g ai/ha, visual rating 0-100, 0 no effect, 100 complete control): 0
Velvetleaf plant response rating (0 to 100 scale) (velvetleaf [11]; [19]): 0
Plant response rating, Velvetleaf (velvetleaf [11]; [20]): 0
Velvetleaf plant response rating (velvetleaf [11]; 125 g ai/ha): 0
Velvetleaf plant response rating (velvetleaf [11]; 500 g ai/ha): 0
Blackgrass plant response rating (blackgrass; 125 g ai/ha): 0
Blackgrass plant response rating (blackgrass; 500 g ai/ha): 0
Wheat plant response rating (wheat; 125 g ai/ha): 0
Wheat plant response rating (wheat; 500 g ai/ha): 0
Oat, Wild plant response rating (wild oat; 125 g ai/ha): 0
Oat, Wild plant response rating (wild oat; 500 g ai/ha): 0
Rice plant response rating (rice [12]): 0
Sedge, Umbrella plant response rating [13]: 0
Ducksalad plant response rating (ducksalad): 0
Barnyardgrass plant response rating (barnyardgrass [14]): 0
